Reference: patent US9232796B2, “Herbicidal compositions comprising 4-amino-3-chloro-5-fluoro-6-(4-chloro-2-fluoro-3-methoxyphenyl) pyridine-2-carboxylic acid or a derivative thereof and acetyl-CoA carboxylase (ACCase) inhibitors” (DOW AGROSCIENCES LLC, priority 2012, dated 2016)
Where “and” joins values, the source holds several entries; their conditions need not be identical. Equal values may be shown once.

Legend:
IPOHE = experiment: Example I postemergence foliar-applied, greenhouse, direct seeded rice weeds; format: in vivo, Ipomoea hederacea Jacq.
Summary of the method: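 Greenhouse plants in loam/sandy loam–grit soil (80:20), grown 8-22 days (29/26 °C, 14 hr photoperiod) to first–fourth true leaf, sprayed postemergence at 187 L/ha with 1.25% (v/v) crop oil concentrate, alone or in mixtures. Visual injury scored 0–100% versus untreated plants after about 3 weeks; mixture expectations by Colby's equation.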

ECHOR = experiment: Example II in-water applied, greenhouse, transplanted paddy rice weeds; format: in vivo, Echinochloa oryzoides (Ard.) Fritsch
Experimental: Weed seeds or nutlets of the desired test plant species were planted in puddled soil (mud) prepared by mixing a shredded, non-sterilized mineral soil (50.5 percent silt, 25.5 percent clay, and 24 percent sand, with a pH of about 7.6 and an organic matter content of about 2.9 percent) and water at a 1:1 volumetric ratio. The prepared mud was dispensed in 365 mL aliquots into 16-ounce (oz.) non-perforated plastic pots with a surface area of 86.59 square centimeters (cm^2) leaving a headspace of 3 centimeters (cm) in each pot. Mud was allowed to dry overnight prior to planting or transplanting. Rice seeds were planted in Sun Gro MetroMix® 306 planting mixture, which typically has a pH of 6.0 to 6.8 and an organic matter content of about 30 percent, in plastic plug trays. Seedlings at the second or third leaf stage of growth were transplanted into 860 mL of mud contained in 32-oz. non-perforated plastic pots with a surface area of 86.59 cm^2 4 days prior to herbicide application. The paddy was created by filling the headspace of the pots with 2.5 to 3 cm of water. […] The plants were grown for 4-22 days in a greenhouse with an approximate 14 hr. photoperiod which was maintained at about 29° C. during the day and 26° C. during the night. Nutrients were added as Osmocote® (19:6:12, N:P:K+minor nutrients) at 2 g per 16-oz. pot and 4 g per 32-oz. pot. Water was added on a regular basis to maintain the paddy flood, and supplemental lighting was provided with overhead metal halide 1000-Watt lamps as necessary. The plants were employed for testing when they reached the first through fourth true leaf stage.
Treatments consisted of the acid or esters of 4-amino-3-chloro-5-fluoro-6-(4-chloro-2-fluoro-3-methoxy-phenyl)pyridine-2-carboxylic acid (compound A) each formulated as an SC (suspension concentrate) and various herbicidal components alone and in combination.
For formulated compounds, a measured amount was placed in an individual 100 or 200 mL glass vial and was dissolved in a volume of 1.25% (v/v) Agri-Dex® crop oil concentrate to obtain application solutions.
(§1) Applications were made by injecting with a pipetter appropriate amounts of the application solutions, individually and sequentially, into the aqueous layer of the paddy. Control plants were treated in the same manner with the solvent blank. Applications were made so that all treated plant material received the same concentrations of acetone and crop oil concentrate.
(§2) The treated plants and control plants were placed in a greenhouse as described above and water was added as needed to maintain a paddy flood. After approximately 3 weeks the condition of the test plants as compared with that of the untreated plants was determined visually and scored on a scale of 0 to 100 percent where 0 corresponds to no injury or growth inhibition and 100 corresponds to complete kill.
(§3) Colby's equation was used to determine the herbicidal effects expected from the mixtures (Colby, S. R. 1967. Calculation of the synergistic and antagonistic response of herbicide combinations. Weeds 15:20-22.).
(§4) The following equation was used to calculate the expected activity of mixtures containing two active ingredients, A and B: Expected=A+B−(A×B/100)

ECHCG = experiment: as above; format: in vivo, Echinochloa crusgalli (L.) Beauv.
Experimental: as §1, §2, §3, §4

ISCRU = experiment: Example I postemergence foliar-applied, greenhouse, direct seeded rice weeds; format: in vivo, Ischaemum rugosum Salisb.
Text: Seeds or nutlets of the desired test plant species were planted in a soil matrix prepared by mixing a loam or sandy loam soil (e.g., 28.6 percent silt, 18.8 percent clay, and 52.6 percent sand, with a pH of about 5.8 and an organic matter content of about 1.8 percent) and calcareous grit in an 80 to 20 ratio. The soil matrix was contained in plastic pots with a volume of 1 quart and a surface area of 83.6 square centimeters (cm^2). When required to ensure good germination and healthy plants, a fungicide treatment and/or other chemical or physical treatment was applied. The plants were grown for 8-22 days in a greenhouse with an approximate 14 hr. photoperiod which was maintained at about 29° C. during the day and 26° C. during the night. Nutrients (Peters Excel® 15-5-15 5-Ca 2-Mg and iron chelate) were applied in the irrigation solution as needed and water was added on a regular basis. Supplemental lighting was provided with overhead metal halide 1000-Watt lamps as necessary. The plants were employed for testing when they reached the first through fourth true leaf stage.
Treatments consisted of the acid or esters of 4-amino-3-chloro-5-fluoro-6-(4-chloro-2-fluoro-3-methoxy-phenyl)pyridine-2-carboxylic acid (Compound A), each formulated as an SC (suspension concentrate), and various herbicidal components alone and in combination.
Other herbicidal components were applied on an acid equivalent (ae) or active ingredient (ai) basis and included acetyl coA carboxylase (ACCase)-inhibiting herbicides (cyclohexanedione and aryloxyphenoxypropionate chemical classes) cyhalofop-butyl formulated as Clincher® SF (285 gr ai/L EC), diclofop-methyl formulated as Hoelon® 3EC, fenoxaprop-p-ethyl+isoxadifen-ethyl formulated as RiceStar® HT (0.58 lb./gal EC), fenoxaprop-p-ethyl+mefenpyr diethyl formulated as Puma® IEC, metamifop formulated as Metamifop EC, haloxyfop-methyl formulated as Gallant Super®, fluazifop-p-butyl formulated as Fusilade® DX, quizalofop-p-ethyl formulated as Assure® II, profoxydim formulated as Aura® 20EC, clethodim applied as Intensity®, sethoxydim formulated as Poast®, and tralkoxydim formulated as Achieve®.
Treatment requirements were calculated based upon the rates being tested, the concentration of active ingredient or acid equivalent in the formulation, and a 12 mL application volume at a rate of 187 L/ha.
For treatments comprised of formulated compounds, measured amounts of compounds were placed individually in 25 mL glass vials and diluted in a volume of 1.25% (v/v) Agri-Dex® crop oil concentrated to obtain 12× stock solutions. […] Application solutions were prepared by adding an appropriate amount of each stock solution (e.g., 1 mL) and diluted to the appropriate final concentrations with the addition of 10 mL of an aqueous mixture of 1.25% (v/v) crop oil concentrate so that the final spray solutions contained 1.25+/−0.05% (v/v) crop oil concentrate.
All stock solutions and applications solutions were visually inspected for compound compatibility prior to application. […]
as §2, with “watered by sub-irrigation” for “water was added as needed”, “prevent wash-off of the test compounds.” for “maintain a paddy flood.”, “weeks,” for “weeks”, “kill. […]” for “kill.”

## COc1c(Cl)ccc(-c2nc(C(=O)O)c(Cl)c(N)c2F)c1F [Compound A Acid, 4-amino-3-chloro-6-(4-chloro-2-fluoro-3-methoxyphenyl)-5-fluoropyridine-2-carboxylic acid]
IPOHE; 4.38 gae/ha
  Visual Weed Control (%) - 19 DAA IPOHE Obs: 0%
  Visual Weed Control (%) - 20 DAA IPOHE Obs: 10% and 0%
  Visual Weed Control (%) - 24 DAA IPOHE Obs: 10%
IPOHE; 8.75 gae/ha
  Visual Weed Control (%) - 19 DAA IPOHE Obs: 10%
  Visual Weed Control (%) - 20 DAA IPOHE Obs: 30% and 20%
  Visual Weed Control (%) - 24 DAA IPOHE Obs: 10%
IPOHE; 17.5 gae/ha
  Visual Weed Control (%) - 19 DAA IPOHE Obs: 35%
  Visual Weed Control (%) - 20 DAA IPOHE Obs: 40%
  Visual Weed Control (%) - 24 DAA IPOHE Obs: 30%
IPOHE; 19.4 gae/ha
  Visual Weed Control (%) - 20 DAA IPOHE Obs: 15%
ECHOR; 8.75 gae/ha in-water
  Visual Weed Control (%) - 25 DAA ECHOR Obs: 0%
ECHOR; 17.5 gae/ha in-water
  Visual Weed Control (%) - 25 DAA ECHOR Obs: 0%
ECHOR; 35 gae/ha in-water
  Visual Weed Control (%) - 25 DAA ECHOR Obs: 40%
ECHOR; in-water, 8.75 gae/ha
  Visual Weed Control (%) - 21 DAA ECHOR Obs: 0%
ECHOR; in-water, 10.6 gae/ha
  Visual Weed Control (%) - 21 DAA ECHOR Obs: 0%
ECHOR; in-water, 21.2 gae/ha
  Visual Weed Control (%) - 21 DAA ECHOR Obs: 15%
ECHOR; in-water, 35 gae/ha
  Visual Weed Control (%) - 21 DAA ECHOR Obs: 15% and 30%
ECHOR; in-water, 42.4 gae/ha
  Visual Weed Control (%) - 21 DAA ECHOR Obs: 15%
ECHOR; in-water, Compound A Acid 8.75 gae/ha
  Visual Weed Control (%) - 21 DAA ECHOR Obs: 10%
ECHOR; in-water, Compound A Acid 17.5 gae/ha
  Visual Weed Control (%) - 21 DAA ECHOR Obs: 15%
ECHOR; in-water, Compound A Acid 35 gae/ha
  Visual Weed Control (%) - 21 DAA ECHOR Obs: 20%
ECHCG; 16 gae/ha
  Visual Weed Control (%) - 22 DAA ECHCG Obs: 20%
ECHCG; 32 gae/ha
  Visual Weed Control (%) - 22 DAA ECHCG Obs: 25%
ISCRU; 8.75 gae/ha
  Visual Weed Control (%) - 26 DAA ISCRU Obs: 37%
ISCRU; 17.5 gae/ha
  Visual Weed Control (%) - 26 DAA ISCRU Obs: 63%

## C[C@@H](Oc1ccc(Oc2nc3ccc(Cl)cc3o2)cc1)C(=O)N(C)c1ccccc1F [Metamifop, (2R)-2-[4-[(6-chloro-2-benzoxazolyl)oxy]phenoxy]-N-(2-fluorophenyl)-N-methylpropanamide]
IPOHE; 9.38 gai/ha
  Visual Weed Control (%) - 22 DAA IPOHE Obs: 0%
IPOHE; 18.75 gai/ha
  Visual Weed Control (%) - 22 DAA IPOHE Obs: 0%
IPOHE; 37.5 gai/ha
  Visual Weed Control (%) - 22 DAA IPOHE Obs: 0%
IPOHE; 150 gai/ha
  Visual Weed Control (%) - 24 DAA IPOHE Obs: 0%
ECHOR; in-water, 50 gai/ha
  Visual Weed Control (%) - 21 DAA ECHOR Obs: 20%

## CCC/C(=N\OCC(C)Oc1ccc(Cl)cc1)C1=C(O)CC(C2CCCSC2)CC1=O (centres unmarked) [Profoxydim, 2-[1-[[2-(4-chlorophenoxy)propoxy]imino]butyl]-3-hydroxy-5-(tetrahydro-2H-thiopyran-3-yl)-2-cyclohexen-1-one, reference compound]
ECHOR; in-water, 25 gai/ha
  Visual Weed Control (%) - 21 DAA ECHOR Obs: 0%
ECHCG; 50 gai/ha
  Visual Weed Control (%) - 22 DAA ECHCG Obs: 30%

## CCCCOC(=O)[C@@H](C)Oc1ccc(Oc2ccc(C#N)cc2F)cc1 [Cyhalofop-butyl, butyl(2R)-2-[4-(4-cyano-2-fluorophenoxy)phenoxy]propanoate, reference compound]
IPOHE; 280 gai/ha
  Visual Weed Control (%) - 20 DAA IPOHE Obs: 0%
ECHOR; 90 gai/ha, in-water
  Visual Weed Control (%) - 25 DAA ECHOR Obs: 0%
ECHOR; in-water, 90 gai/ha
  Visual Weed Control (%) - 25 DAA ECHOR Obs: 0%
ISCRU; 140 gai/ha
  Visual Weed Control (%) - 26 DAA ISCRU Obs: 10%

## CCOC(=O)[C@@H](C)Oc1ccc(Oc2cnc3cc(Cl)ccc3n2)cc1 [Quizalofop-p-ethyl, ethyl(2R)-2-[4-[(6-chloro-2-quinoxalinyl)oxy]phenoxy]propanoate, reference compound]
IPOHE; 1.88 gai/ha
  Visual Weed Control (%) - 22 DAA IPOHE Obs: 0%
IPOHE; 3.75 gai/ha
  Visual Weed Control (%) - 22 DAA IPOHE Obs: 0%
IPOHE; 7.5 gai/ha
  Visual Weed Control (%) - 22 DAA IPOHE Obs: 0%
IPOHE; 15 gai/ha
  Visual Weed Control (%) - 20 DAA IPOHE Obs: 0%
IPOHE; 30 gai/ha
  Visual Weed Control (%) - 20 DAA IPOHE Obs: 0%
ECHOR; in-water, 15 gai/ha
  Visual Weed Control (%) - 21 DAA ECHOR Obs: 0%
ECHOR; in-water, 30 gai/ha
  Visual Weed Control (%) - 21 DAA ECHOR Obs: 60%
ECHCG; 15 gai/ha
  Visual Weed Control (%) - 21 DAA ECHCG Obs: 50%
ECHCG; 30 gai/ha
  Visual Weed Control (%) - 21 DAA ECHCG Obs: 100%

## COc1c(Cl)ccc(-c2nc(C(=O)OCc3ccccc3)c(Cl)c(N)c2F)c1F [Compound A Benzyl Ester, benzyl ester of 4-amino-3-chloro-5-fluoro-6-(4-chloro-2-fluoro-3-methoxy-phenyl)pyridine-2-carboxylic acid]
IPOHE; 4.38 gae/ha
  Visual Weed Control (%) - 19 DAA IPOHE Obs: 0%
IPOHE; 8.75 gae/ha
  Visual Weed Control (%) - 19 DAA IPOHE Obs: 0%
IPOHE; 16 gae/ha
  Visual Weed Control (%) - 21 DAA IPOHE Obs: 10%
IPOHE; 32 gae/ha
  Visual Weed Control (%) - 21 DAA IPOHE Obs: 25%
  Visual Weed Control (%) - 22 DAA IPOHE Obs: 45%
ECHOR; in-water, 4.38 gae/ha
  Visual Weed Control (%) - 21 DAA ECHOR Obs: 0%
ECHOR; in-water, 8 gae/ha
  Visual Weed Control (%) - 21 DAA ECHOR Obs: 10% and 8%
ECHOR; in-water, 8.75 gae/ha
  Visual Weed Control (%) - 21 DAA ECHOR Obs: 10% and 15%
  Visual Weed Control (%) - 25 DAA ECHOR Obs: 85%
ECHOR; in-water, 17.5 gae/ha
  Visual Weed Control (%) - 25 DAA ECHOR Obs: 90%
ECHOR; in-water, 35 gae/ha
  Visual Weed Control (%) - 25 DAA ECHOR Obs: 100%
ECHOR; in-water, 48 gae/ha
  Visual Weed Control (%) - 21 DAA ECHOR Obs: 78%
ECHOR; in-water, 96 gae/ha
  Visual Weed Control (%) - 21 DAA ECHOR Obs: 80%
ECHCG; 4.38 gae/ha
  Visual Weed Control (%) - 21 DAA ECHCG Obs: 15%
ECHCG; 8 gae/ha
  Visual Weed Control (%) - 22 DAA ECHCG Obs: 50%
ECHCG; 16 gae/ha
  Visual Weed Control (%) - 22 DAA ECHCG Obs: 60%
ECHCG; 17.5 gae/ha
  Visual Weed Control (%) - 21 DAA ECHCG Obs: 75%
ECHCG; 32 gae/ha
  Visual Weed Control (%) - 22 DAA ECHCG Obs: 99%
ISCRU; 8.75 gae/ha
  Visual Weed Control (%) - 26 DAA ISCRU Obs: 18%
ISCRU; 17.5 gae/ha
  Visual Weed Control (%) - 26 DAA ISCRU Obs: 33%
